We go through 37 compounds from PubChem BioAssay AID504645 (Southern Research Specialized Biocontainment Screening …, 2011).

The assay in a line: Mycobacterium tuberculosis H37Rv growth inhibition, glycerol free medium, confirmatory screen (AID 504645).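 Note: bacteria grown one week before the viability dye was added.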 The note with it: M. tuberculosis H37Rv growth inhibition, glycerol-free medium; at 25 µM (top of the series).

SMILES strings stand for the structures. The source made the active and inactive calls. The rule behind the calls is not given here.

A word on the inhibition: it is the relative decrease from the control value, in per cent. `Cc1nc(SCC(N)=O)[nH]c(=O)c1C`: the inhibition is 2.85% (inactive).
With `CCOC(=O)C(CC)Sc1ncnc2c1nnn2-c1ccc(F)cc1` (configuration not stated) the figure was 14.7% (inactive).
`CC(NC(=O)CSc1nc2ccccc2c(=O)[nH]1)c1ccccc1` (configuration not stated): the inhibition was 1.63% (inactive).
Consider `COc1ccc(-c2noc(CSc3nc(N)c(-c4ccccc4)c(=O)[nH]3)n2)cc1OC`, for which the inhibition is 3.69% (inactive).
To `CCCc1cc(=O)[nH]c(SCC(=O)Nc2cc3c(cc2C(C)=O)OCO3)n1` belongs 9.03% (inactive); to `O=C(C1CCC(CNc2c(N3CCCCC3)c(=O)c2=O)CC1)N1CCCCC1` (configuration not stated), 1.49% (inactive).
With `Cc1c[nH]c(=S)[nH]c1=O` the figure was 3.09% (inactive).
To `Nc1cc(=O)[nH]c(SCC(=O)Nc2ccc(Oc3ccccc3)cc2)n1` belongs 7.34% (inactive); to `CCOc1ccc2nc(NC(=O)C(CC)Sc3nc(C)cc(=O)[nH]3)sc2c1` (configuration not stated), 4.79% (inactive).
Turning to `CCSc1nc(C)c(C)c(=O)[nH]1`, the inhibition was 3.06% (inactive).
With `O=C(NCCc1ccc(Cl)cc1)C1CCC(CNc2c(N3CCCCC3)c(=O)c2=O)CC1` (configuration not stated) the figure was 14.2% (inactive).
Regarding `CC1CCN(C(=O)CSc2nc3ccccc3c(=O)[nH]2)CC1`, the inhibition was -0.18% (inactive).
To `O=c1[nH]c(=S)[nH]c2ccccc12` belongs -4.53% (inactive); to `Cc1[nH]c2ccccc2c1C(=O)COC(=O)c1ccc([N+](=O)[O-])s1`, 8.85% (inactive).
For `Cc1ccc(NC(=O)CSc2nc(N)c(-c3ccccc3)c(=O)[nH]2)cc1Cl`, the inhibition was 1.17% (inactive).
With `Cc1nc(SCC(=O)N(C)c2ccccc2)[nH]c(=O)c1C` the figure was -1.39% (inactive); with `CCOc1ccc(NC(=O)c2ccc(CNc3c(N4CCCC4)c(=O)c3=O)cc2)cc1`, 7.47% (inactive); with `COC(=O)c1ccc(CNc2c(N3CCCC3)c(=O)c2=O)cc1`, -5.38% (inactive).
With `O=C(NCC1COc2ccccc2O1)C1CCC(CNc2c(N3CCCCC3)c(=O)c2=O)CC1` (configuration not stated) the figure was 4.5% (inactive); with `Cc1cc(=O)[nH]c(=S)[nH]1`, 3.98% (inactive); with `Cc1cccc(N2CCN(C(=O)c3ccc(CNc4c(N5CCC(C)CC5)c(=O)c4=O)cc3)CC2C)c1` (configuration not stated), 4.48% (inactive).
To `COC(=O)C(Nc1nc(SCC(=O)NC2CCCCC2)nc2ccccc12)c1ccccc1` (configuration not stated) belongs -2.65% (inactive); to `Nc1cc(=O)[nH]c(SCC(=O)Nc2ccccc2-c2ccccc2)n1`, 3.67% (inactive).
As for `CCc1c(O)nc(SCC(=O)Nc2ccc(OC)cc2)n(C2CCCCC2)c1=O`, the inhibition is 2.43% (inactive).
Turning to `O=C(CSc1ccccn1)NC1CCCCC1`, the inhibition was 5.28% (inactive).
As to `CCc1cc(=O)[nH]c(SCC(=O)Nc2ccc3c(c2)OCCO3)n1`, the inhibition is 5.24% (inactive).
With `Cc1cc(C)cc(NC(=O)CSc2nc3c(c(=O)[nH]2)CN(Cc2ccc(F)cc2)CC3)c1` the figure was -0.57% (inactive); with `Cc1nc(SCc2ccccc2Cl)[nH]c(=O)c1C`, -3.47% (inactive); with `CCOC(=O)N1CCC(Nc2c(Nc3cccc(CC)c3)c(=O)c2=O)CC1`, 11.5% (inactive).
To `CN(C(=O)CSc1nc2ccccc2c(=O)[nH]1)C1CCCCC1` belongs 3.96% (inactive).
As for `O=C(CSc1ncccn1)NC1CCCCC1`, the inhibition was 2.15% (inactive).
To `Cc1ccc(NC(=O)CSc2nc(N)cc(=O)[nH]2)cc1Cl` belongs 10.7% (inactive).
To `CCOC(=O)CSc1nc(C)c(C)c(=O)[nH]1` belongs -1.83% (inactive); to `Cc1cc(=O)[nH]c(SCC(=O)Nc2ncc(S(=O)(=O)c3ccc([N+](=O)[O-])cc3)s2)n1`, 2.85% (inactive); to `C=CCn1c(SCC(=O)Nc2cccc3ccccc23)nc(O)c(CC)c1=O`, 6.9% (inactive).
With `COc1ccc(NC(=O)CSc2nc(NS(=O)(=O)c3ccc(C)cc3)cc(=O)[nH]2)cc1`, the inhibition was 1.34% (inactive).
To `CCOC(=O)N1CCC(Nc2c(N3CCN(c4cccc(C(F)(F)F)c4)CC3)c(=O)c2=O)CC1` belongs 3.78% (inactive).
